Data published in patent US20050137135A1 (priority 2002, published 2005).
Entries after “also recorded” stand apart in the source; their conditions may differ.

Tests used:
[1] = test system: INS-1 cells (clone 832/13); test: Insulin release from INS-1 (832/13) cells; assay type: cell-based; conditions: 10 nM GIP, 60 minutes, n=3
Description: (§1) Cell passages 45-60 were used.

INS-1 (832/13) cells [2] = test: Glucose dependent β-cell proliferation (CYQUANT cell quantification); assay type: cell-based
Protocol: as §1
Cells were seeded into 96-well plates (5×10^4 cells/well) prior to experimentation. […] Thereafter, cells were washed with KRBH (115 mM NaCl, 4.7 mM KCl, 1.2 mM KH2PO4, 10 mM NaHCO3, 1.28 mM CaCl2, 1.2 mM MgSO4 containing 10 mM HEPES and 0.1% bovine serum albumin, pH 7.4) and frozen at −70° C. until assayed. Cells were quantified using the CYQUANT™ assay system (Molecular Probes, Eugene, Oreg., USA) according to the manufacturers' protocol. Final cell numbers were always greater than the initial number plated in assessing cellular proliferation.

INS-1 (832/13) cells [3] = test: Cell survival during glucose deprivation (CYQUANT); assay type: cell-based
Protocol: as §1
Cells were seeded into 96-well plates (5×10^4 cells/well) prior to experimentation. […] Cells were quantified using the CYQUANT™ assay system (Molecular Probes, Eugene, Oreg., USA) according to the manufacturers' protocol.
Cell survival was assessed in the presence of prolonged glucose deprivation.

[4] = test system: caspase-3 activity in INS-1 (832/13) cells; test: Caspase-3 activity induced by glucose deprivation; assay type: cell-based; conditions: 6 h; 100 nM GIP, 10 µM forskolin
Protocol: (§2) INS-1 cells (clone 832/13) seeded into 6-well plates were serum starved for 12-24 h and subjected to glucose deprivation (RPMI with 0.1% BSA) or treatment with 2 mM streptozotocin (STZ). […] Following treatment, caspase-3 activity was determined after 2, 6, or 24 h according to the manufacturers' protocol (Molecular Probes, Eugene, Oreg., USA). Caspase-3 activity/well was corrected for total protein content using the BCA protein assay (Pierce, Roxford, II, USA).

[5] = test system: caspase-3 activity in INS-1 (832/13) cells; test: Caspase-3 activity induced by streptozotocin (STZ); assay type: cell-based; conditions: added 10 minutes prior to and during a 30 minute STZ exposure
Protocol: as §2

[6] = in vivo; cited from earlier work

## CC[C@H](C)[C@H](NC(=O)[C@H](CO)NC(=O)[C@H](Cc1ccc(O)cc1)NC(=O)[C@H](CC(=O)O)NC(=O)[C@H](CO)NC(=O)[C@@H](NC(=O)[C@H](Cc1ccccc1)NC(=O)[C@@H](NC(=O)CNC(=O)[C@H](CCC(=O)O)NC(=O)[C@H](C)NC(=O)[C@@H](N)Cc1ccc(O)cc1)[C@@H](C)O)[C@@H](C)CC)C(=O)N[C@@H](C)C(=O)N[C@@H](CCSC)C(=O)N[C@@H](CC(=O)O)C(=O)N[C@@H](CCCCN)C(=O)N[C@H](C(=O)N[C@@H](Cc1c[nH]cn1)C(=O)N[C@@H](CCC(N)=O)C(=O)N[C@@H](CCC(N)=O)C(=O)N[C@@H](CC(=O)O)C(=O)N[C@@H](Cc1ccccc1)C(=O)N[C@H](C(=O)N[C@@H](CC(N)=O)C(=O)N[C@@H](Cc1c[nH]c2ccccc12)C(=O)N[C@@H](CC(C)C)C(=O)N[C@@H](CC(C)C)C(=O)N[C@@H](C)C(=O)N[C@@H](CCC(N)=O)C(=O)N[C@@H](CCCCN)C(=O)NCC(=O)N[C@@H](CCCCN)C(=O)N[C@@H](CCCCN)C(=O)N[C@@H](CC(N)=O)C(=O)N[C@@H](CC(=O)O)C(=O)N[C@@H](Cc1c[nH]c2ccccc12)C(=O)N[C@@H](CCCCN)C(=O)N[C@@H](Cc1c[nH]cn1)C(=O)N[C@@H](CC(N)=O)C(=O)N[C@H](C(=O)N[C@H](C(=O)N[C@@H](CCC(N)=O)C(=O)O)[C@@H](C)O)[C@@H](C)CC)C(C)C)[C@@H](C)CC [GIP, glucose-dependent insulinotropic polypeptide]
[1]
  5.5 mM glucose stimulated insulin secretion: 2.44±0.29 % total insulin secreted
INS-1 (832/13) cells [2]; 11 mM glucose
  potentiation of glucose dependent β-cell proliferation: potentiates 11 mM glucose induced cell growth
INS-1 (832/13) cells [2]; 11 mM glucose, 100 nM, FIG. 15A
  cell proliferation, % of growth in the presence of 5.5 mM glucose: 158±16%
INS-1 (832/13) cells [2]; separate experiment, 100 nM, n=4
  cell growth, % of that measured in the presence of 5.5 mM glucose: 131±7%
INS-1 (832/13) cells [3]; 0 mM glucose
  effect on cell survival during glucose deprivation: promotes INS-1 (832/13) cell survival during glucose deprivation in a concentration-dependent manner
INS-1 (832/13) cells [3]; n=3, p<0.05
  protection against wortmannin-induced cell loss: partially protected; also recorded: partially reversed
[4]
  0 mM glucose induced caspase-3 activity: completely reversed; also recorded: ablates
[5]
  STZ induced caspase-3 activity: protect against the pro-apoptotic (caspase-3 activating) effects of STZ completely; also recorded: ablates
[6]
  biological half-life: ~2 min
